From patent US11753407B2, “Compounds for treating spinal muscular atrophy” (PTC Therapeutics, Inc., priority 2012, dated 2023) come the findings set out here.

The structures appear in SMILES notation. Where a name gives a salt, the structure may show the parent alone.

Data set [1] relates to SMN2 minigene mRNA (SMN2-A minigene) in HEK293H cells. The data set is described as follows: SMN2 minigene mRNA splicing RT-qPCR assay in cultured cells. Type of data set: cell-based, human. The settings on record: Homo sapiens, HEK293-H; concentration increasing full length SMN2 mRNA 1.5-fold relative to vehicle-treated cells; HEK293H cells with SMN2-A minigene, 24 hours, 7-point concentration data; read-out: EC1.5x for production of full length SMN2 mRNA. The procedure, abridged: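 Read-out: minigene-specific full-length (exon 7-included) SMN2 mRNA by one-step multiplex RT-qPCR, normalized to GAPDH and divided by vehicle-treated level. Stable SMN2-A minigene HEK293H cells, 24 h compound exposure, 7 concentrations in duplicate. EC1.5× = concentration raising FL mRNA 1.5-fold.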
(Quantitative PCR measures a nucleic acid by following its amplification.)

The subject of data set [2] is Smn protein in SMA patient fibroblast cells (GM03813). Briefly: Smn protein assay in cultured cells (SMN HTRF). Type of data set: cell-based, human. The settings on record: SMA patient fibroblast cells, 48 hours; for maximum fold (Fold) increase of Smn protein: 7-point concentration data, fold relative to vehicle control; for EC1.5x for Smn protein expression: 7-point concentration curve, SMN HTRF, concentration producing 1.5 times Smn protein vs DMSO vehicle control. The method, boiled down: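 Read-out: HTRF 665/620 nm ratio, blank-subtracted as ΔF, then expressed as fold over DMSO vehicle. Fibroblasts from SMA patients were exposed to compounds for 48 h (7 points, 3.16-fold steps, triplicates). Values are EC1.5× and maximum fold Smn increase.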
A general note: TR-FRET usually uses a lanthanide donor and a delayed reading to cut background.

What is called melting point is the temperature of the solid-liquid transition. Consider `COc1ccc(-c2cc(=O)n3cc(N4CCC(N(C)C)CC4)ccc3c2)cc1F` (as salt: acetate) [Compound 203, 7-[4-(dimethylamino)piperidin-1-yl]-2-(3-fluoro-4-methoxyphenyl)-4H-quinolizin-4-one], for which the melting point lay in the range of 188 to 192 °C.
Still for that read-out and setting: to `O=c1cc(-c2cc(F)c(O)c(F)c2)nc2ccc(N3CCNCC3)cn12` (as salt: hydrochloride) [Compound 71, 2-(3,5-difluoro-4-hydroxyphenyl)-7-(piperazin-1-yl)-4H-pyrido[1,2-a]pyrimidin-4-one] belongs 290 °C (dec.).
In turn, `COc1ccc(-c2cc(=O)n3cc(N4CCN(C)CC4)ccc3n2)cc1` [Compound 2, 2-(4-methoxyphenyl)-7-(4-methylpiperazin-1-yl)-4H-pyrido[1,2-a]pyrimidin-4-one] had a melting point of 178 to 182 °C. Also, the EC (1.5-fold increase) in data set [1] lay in the range of 1 to 3 µM. Besides, the “maximum fold (Fold) increase of Smn protein” value (“maximum fold (Fold) increase” below) in data set [2] is “** (a fold increase between >1.2 and ≤1.35 is indicated by two stars (**))”.
Molecule `COc1ccc(-c2cc(=O)n3cc(N4CCN[C@H](C)C4)ccc3n2)cc1` [Compound 3, 2-(4-methoxyphenyl)-7-[(3R)-3-methylpiperazin-1-yl]-4H-pyrido[1,2-a]pyrimidin-4-one] yielded a melting point of 152 to 154 °C. Also, the EC (1.5-fold increase) in data set [1] fell in the range of 0.3 to 1 µM. In data set [2], the “EC1.5x for Smn protein expression” value is “** (an EC1.5× between >1 μM and ≤3 μM is indicated by two stars (**))”; the “maximum fold (Fold) increase” value was “*** (a fold increase between >1.35 and ≤1.5 is indicated by three stars (***))”.
For the molecule `COc1ccc(-c2cc(=O)n3cc(N4C[C@@H](C)N[C@@H](C)C4)ccc3n2)cc1` [Compound 4, 7-[(3R,5S)-3,5-dimethylpiperazin-1-yl]-2-(4-methoxyphenyl)-4H-pyrido[1,2-a]pyrimidin-4-one], the melting point lay in the range of 185 to 187 °C. Also, the EC (1.5-fold increase) in data set [1] lay in the range of 1 to 3 µM. For the same molecule, the “maximum fold (Fold) increase” value in data set [2] is listed as “* (A maximum fold increase of ≤1.2 is indicated by one star (*))”.
The corresponding values for `COc1ccc(-c2cc(=O)n3cc(N4CCCNCC4)ccc3n2)cc1` [Compound 5, 7-(1,4-diazepan-1-yl)-2-(4-methoxyphenyl)-4H-pyrido[1,2-a]pyrimidin-4-one] are 149 to 152 °C, 3 to 30 µM and “* (A maximum fold increase of ≤1.2 is indicated by one star (*))”.
Take `COc1ccc(-c2cc(=O)n3cc(N4CCNC(C)(C)C4)ccc3n2)cc1OC` [Compound 7, 2-(3,4-dimethoxyphenyl)-7-(3,3-dimethylpiperazin-1-yl)-4H-pyrido[1,2-a]pyrimidin-4-one]: the melting point lay in the range of 138 to 140 °C. Besides, the EC (1.5-fold increase) in data set [1] lay in the range of 0.3 to 1 µM. In data set [2], the “maximum fold (Fold) increase” value was “*** (a fold increase between >1.35 and ≤1.5 is indicated by three stars (***))”.
`COc1ccc(-c2cc(=O)n3cc(N4CCN[C@H](C)C4)ccc3n2)cc1OC` [Compound 8, 2-(3,4-dimethoxyphenyl)-7-[(3R)-3-methylpiperazin-1-yl]-4H-pyrido[1,2-a]pyrimidin-4-one]: the melting point was in the range of 181 to 184 °C. The EC (1.5-fold increase) in data set [1] fell in the range of 0.1 to 0.3 µM. For the same molecule, in data set [2], the “EC1.5x for Smn protein expression” value was “** (an EC1.5× between >1 μM and ≤3 μM is indicated by two stars (**))”; the “maximum fold (Fold) increase” value was “**** (a fold increase between >1.5 and ≤1.65 is indicated by four stars (****))”.
Turning to `CCN1CCN(c2ccc3nc(-c4ccc(OC)c(OC)c4)cc(=O)n3c2)CC1` [Compound 9, 2-(3,4-dimethoxyphenyl)-7-(4-ethylpiperazin-1-yl)-4H-pyrido[1,2-a]pyrimidin-4-one], the melting point was 159 to 162 °C. In data set [1], the EC (1.5-fold increase) fell in the range of 1 to 3 µM. In addition, the “maximum fold (Fold) increase” value in data set [2] was “*** (a fold increase between >1.35 and ≤1.5 is indicated by three stars (***))”.
`COc1ccc(-c2cc(=O)n3cc(N4CCCN(C)CC4)ccc3n2)cc1OC` [Compound 11, 2-(3,4-dimethoxyphenyl)-7-(4-methyl-1,4-diazepan-1-yl)-4H-pyrido[1,2-a]pyrimidin-4-one] gave a melting point of 166 to 168 °C. Besides, the EC (1.5-fold increase) in data set [1] fell in the range of 0.3 to 1 µM. Besides, in data set [2], the “maximum fold (Fold) increase” value was “*** (a fold increase between >1.35 and ≤1.5 is indicated by three stars (***))”.
In the case of `COc1ccc(-c2cc(=O)n3cc(N4CCN[C@@H](C)C4)ccc3n2)cc1` [Compound 12, 2-(4-methoxyphenyl)-7-[(3S)-3-methylpiperazin-1-yl]-4H-pyrido[1,2-a]pyrimidin-4-one], the melting point fell in the range of 158 to 160 °C. The EC (1.5-fold increase) in data set [1] lay in the range of 0.3 to 1 µM. The “maximum fold (Fold) increase” value in data set [2] was “*** (a fold increase between >1.35 and ≤1.5 is indicated by three stars (***))”.
Regarding `COc1ccc(-c2cc(=O)n3cc(N4CCN(C)CC4)ccc3n2)cc1OC` [Compound 13, 2-(3,4-dimethoxyphenyl)-7-(4-methylpiperazin-1-yl)-4H-pyrido[1,2-a]pyrimidin-4-one], the melting point is 183 to 185 °C. Moreover, the EC (1.5-fold increase) in data set [1] was 1 to 3 µM. Further, the “maximum fold (Fold) increase” value in data set [2] is “** (a fold increase between >1.2 and ≤1.35 is indicated by two stars (**))”.
Turning to `COc1ccc(-c2cc(=O)n3cc(N4C[C@@H](C)N[C@@H](C)C4)ccc3n2)cc1OC` [Compound 14, 2-(3,4-dimethoxyphenyl)-7-[(3R,5S)-3,5-dimethylpiperazin-1-yl]-4H-pyrido[1,2-a]pyrimidin-4-one], the melting point lay in the range of 182 to 187 °C. Besides, the EC (1.5-fold increase) in data set [1] lay in the range of 1 to 3 µM. In addition, the “maximum fold (Fold) increase” value in data set [2] is “*** (a fold increase between >1.35 and ≤1.5 is indicated by three stars (***))”.
On to `CCCN1CCN(c2ccc3nc(-c4ccc(OC)c(OC)c4)cc(=O)n3c2)CC1` [Compound 15, 2-(3,4-dimethoxyphenyl)-7-(4-propylpiperazin-1-yl)-4H-pyrido[1,2-a]pyrimidin-4-one], for which the melting point is 185 to 189 °C. For the same molecule, in data set [1], the EC (1.5-fold increase) lay within 1 to 3 µM. Moreover, the “maximum fold (Fold) increase” value in data set [2] is “*** (a fold increase between >1.35 and ≤1.5 is indicated by three stars (***))”.
`COc1ccc(-c2cc(=O)n3cc(N4CCCN(C)CC4)ccc3n2)cc1` [Compound 16, 2-(4-methoxyphenyl)-7-(4-methyl-1,4-diazepan-1-yl)-4H-pyrido[1,2-a]pyrimidin-4-one] came in with a melting point of 137 to 141 °C. In data set [1], the EC (1.5-fold increase) is 1 to 3 µM. For the same molecule, the “maximum fold (Fold) increase” value in data set [2] is on record as “* (A maximum fold increase of ≤1.2 is indicated by one star (*))”.
With `O=c1cc(-c2ccc3c(c2)OCO3)nc2ccc(N3CCNCC3)cn12` [Compound 18, 2-(1,3-benzodioxol-5-yl)-7-(piperazin-1-yl)-4H-pyrido[1,2-a]pyrimidin-4-one], the melting point fell in the range of 198 to 201 °C. Further, the EC (1.5-fold increase) in data set [1] fell in the range of 0.3 to 1 µM. Besides, in data set [2], the “EC1.5x for Smn protein expression” value is “** (an EC1.5× between >1 μM and ≤3 μM is indicated by two stars (**))”; the “maximum fold (Fold) increase” value was “**** (a fold increase between >1.5 and ≤1.65 is indicated by four stars (****))”.
For the molecule `CN1CCN(c2ccc3nc(-c4ccc5c(c4)OCO5)cc(=O)n3c2)CC1` [Compound 19, 2-(1,3-benzodioxol-5-yl)-7-(4-methylpiperazin-1-yl)-4H-pyrido[1,2-a]pyrimidin-4-one], the melting point was in the range of 235 to 237 °C. Besides, the EC (1.5-fold increase) in data set [1] lay within 1 to 3 µM. Further, the “maximum fold (Fold) increase” value in data set [2] was “** (a fold increase between >1.2 and ≤1.35 is indicated by two stars (**))”.
In turn, `C[C@@H]1CN(c2ccc3nc(-c4ccc5c(c4)OCO5)cc(=O)n3c2)CCN1` [Compound 20, 2-(1,3-benzodioxol-5-yl)-7-[(3R)-3-methylpiperazin-1-yl]-4H-pyrido[1,2-a]pyrimidin-4-one] had a melting point of 195 to 197 °C. Moreover, the EC (1.5-fold increase) in data set [1] fell in the range of 1 to 3 µM. Also, in data set [2], the “EC1.5x for Smn protein expression” value was “** (an EC1.5× between >1 μM and ≤3 μM is indicated by two stars (**))”; the “maximum fold (Fold) increase” value was “**** (a fold increase between >1.5 and ≤1.65 is indicated by four stars (****))”.
`C[C@@H]1CN(c2ccc3nc(-c4ccc5c(c4)OCO5)cc(=O)n3c2)C[C@H](C)N1` [Compound 21, 2-(1,3-benzodioxol-5-yl)-7-[(3R,5S)-3,5-dimethylpiperazin-1-yl]-4H-pyrido[1,2-a]pyrimidin-4-one] yielded a melting point of 198 to 201 °C. In data set [1], the EC (1.5-fold increase) was in the range of 3 to 30 µM. In addition, the “maximum fold (Fold) increase” value in data set [2] is “* (A maximum fold increase of ≤1.2 is indicated by one star (*))”.
For `COc1ccc(-c2cc(=O)n3cc(C4=CCNCC4)cnc3n2)cc1OC` [Cpd 353, 2-(3,4-dimethoxyphenyl)-7-(1,2,3,6-tetrahydropyridin-4-yl)-4H-pyrimido[1,2-a]pyrimidin-4-one], in data set [1], the EC (1.5-fold increase) was 0.1 to 0.3 µM. Further, the “maximum fold (Fold) increase” value in data set [2] is “** (a fold increase between >1.2 and ≤1.35 is indicated by two stars (**))”.
